What all share (type): functional
The subject of assay [1] is Mycobacterium tuberculosis. As to the kind of experiment: Antimycobacterial activity against multi drug-resistant Mycobacterium tuberculosis 7357/1998 assessed as minimal inhibitory concentration required for complete inhibition of mycobacterial growth incubated for 21 days. Particulars: 7357/1998, 504 h, time 21 day.
In assay [2] the test system is Mycobacterium tuberculosis. As to the kind of experiment: Antimycobacterial activity against multi drug-resistant Mycobacterium tuberculosis praha 1 assessed as minimal inhibitory concentration required for complete inhibition of mycobacterial growth incubated for 21 days. Particulars: praha 1, 504 h, time 21 day.
Assay [3] relates to Mycobacterium tuberculosis. As to the kind of experiment: Antimycobacterial activity against multi drug-resistant Mycobacterium tuberculosis praha 1 assessed as minimal inhibitory concentration required for complete inhibition of mycobacterial growth incubated for 14 days. Particulars: praha 1, 336 h, time 14 day.
The subject of assay [4] is Mycobacterium tuberculosis. As to the kind of experiment: Antimycobacterial activity against multi drug-resistant Mycobacterium tuberculosis praha 131 assessed as minimal inhibitory concentration required for complete inhibition of mycobacterial growth incubated for 14 days. The following applies: praha 131, 336 h, time 14 day.
Assay [5] has as its system Mycobacterium tuberculosis. Briefly: Antimycobacterial activity against multi drug-resistant Mycobacterium tuberculosis 9449/2007 assessed as minimal inhibitory concentration required for complete inhibition of mycobacterial growth incubated for 21 days. Particulars: 9449/2007, 504 h, time 21 day.
Assay [6] has as its system Mycobacterium tuberculosis. Briefly: Antimycobacterial activity against multi drug-resistant Mycobacterium tuberculosis praha 4 assessed as minimal inhibitory concentration required for complete inhibition of mycobacterial growth incubated for 21 days. Particulars: praha 4, 504 h, time 21 day.
The test system of assay [7] is Mycobacterium tuberculosis. As to the kind of experiment: Antimycobacterial activity against multi drug-resistant Mycobacterium tuberculosis 234/2005 assessed as minimal inhibitory concentration required for complete inhibition of mycobacterial growth incubated for 21 days. The following applies: 234/2005, 504 h, time 21 day.
For assay [8], the system named is Mycobacterium tuberculosis. Briefly: Antimycobacterial activity against multi drug-resistant Mycobacterium tuberculosis 8666/2010 assessed as minimal inhibitory concentration required for complete inhibition of mycobacterial growth incubated for 14 days. Particulars: 8666/2010, 336 h, time 14 day.
The subject of assay [9] is Mycobacterium tuberculosis. As to the kind of experiment: Antimycobacterial activity against multi drug-resistant Mycobacterium tuberculosis 7357/1998 assessed as minimal inhibitory concentration required for complete inhibition of mycobacterial growth incubated for 14 days. The following applies: 7357/1998, 336 h, time 14 day.
Assay [10] relates to Mycobacterium tuberculosis. Briefly: Antimycobacterial activity against multi drug-resistant Mycobacterium tuberculosis 234/2005 assessed as minimal inhibitory concentration required for complete inhibition of mycobacterial growth incubated for 14 days. Particulars: 234/2005, 336 h, time 14 day.
Assay [11] relates to Mycobacterium tuberculosis. Briefly: Antimycobacterial activity against multi drug-resistant Mycobacterium tuberculosis praha 4 assessed as minimal inhibitory concentration required for complete inhibition of mycobacterial growth incubated for 14 days. The following applies: praha 4, 336 h, time 14 day.
The test system of assay [12] is Mycobacterium tuberculosis. Briefly: Antimycobacterial activity against multi drug-resistant Mycobacterium tuberculosis 9449/2007 assessed as minimal inhibitory concentration required for complete inhibition of mycobacterial growth incubated for 14 days. Particulars: 9449/2007, 336 h, time 14 day.
Assay [13] deals with Mycobacterium tuberculosis. As to the kind of experiment: Antimycobacterial activity against multi drug-resistant Mycobacterium tuberculosis praha 131 assessed as minimal inhibitory concentration required for complete inhibition of mycobacterial growth incubated for 21 days. The following applies: praha 131, 504 h, time 21 day.
Assay [14] deals with Mycobacterium tuberculosis. As to the kind of experiment: Antimycobacterial activity against multi drug-resistant Mycobacterium tuberculosis 8666/2010 assessed as minimal inhibitory concentration required for complete inhibition of mycobacterial growth incubated for 21 days. The following applies: 8666/2010, 504 h, time 21 day.
For assay [15], the system named is Mycobacterium tuberculosis. Briefly: Antimycobacterial activity against Mycobacterium tuberculosis H37Ra overexpressing KatGs-meg assessed as bacterial growth inhibition incubated for 28 days by drop dilution method. Particulars: 672 h, time 28 day.
Assay [16] concerns Mycobacterium tuberculosis. Briefly: Antimycobacterial activity against Mycobacterium tuberculosis H37Ra overexpressing InhA assessed as bacterial growth inhibition incubated for 28 days by drop dilution method. Particulars: 672 h, time 28 day.

In brackets after ≈: the same amount, converted by molar mass.

We go through eight molecules from ChEMBL document CHEMBL4831492, “Design and synthesis of 2-(2-isonicotinoylhydrazineylidene)propanamides as InhA inhibitors with high antitubercular activity” (Eur J Med Chem, 2021).

By MIC is commonly meant the lowest concentration that inhibits growth of the organism. For the molecule `C/C(=N\NC(=O)c1ccncc1)C(=O)Nc1ccc(Br)cc1`, the MIC in [1] amounted to 32 µM (≈ 11.6 µg/mL); in assay [2] it was 32 µM (≈ 11.6 µg/mL); in assay [3], 32 µM (≈ 11.6 µg/mL); in [4], 32 µM (≈ 11.6 µg/mL); in assay [5], 64 µM (≈ 23.1 µg/mL); in assay [6] it was 32 µM (≈ 11.6 µg/mL). The minimum inhibitory concentration (MIC) in assay [7] stood at 64 µM (≈ 23.1 µg/mL); in assay [8] it was 32 µM (≈ 11.6 µg/mL); in [9] it was 32 µM (≈ 11.6 µg/mL); in assay [10] it was 32 µM (≈ 11.6 µg/mL); in assay [11] it was 32 µM (≈ 11.6 µg/mL); in [12], 32 µM (≈ 11.6 µg/mL). Moreover, the MIC was found to be 64 µM (≈ 23.1 µg/mL) in assay [13] and 32 µM (≈ 11.6 µg/mL) in assay [14].

Take `C/C(=N\NC(=O)c1ccncc1)C(=O)Nc1ccc(Cl)cc1`: the MIC in [1] came to 32 µM (≈ 10.1 µg/mL); in assay [2], 32 µM (≈ 10.1 µg/mL); in [3] it was 32 µM (≈ 10.1 µg/mL); in [4], 32 µM (≈ 10.1 µg/mL); in [5], 64 µM (≈ 20.3 µg/mL); in assay [6], 32 µM (≈ 10.1 µg/mL). Moreover, the minimal inhibitory concentration (MIC) in assay [7] is 64 µM (≈ 20.3 µg/mL); in assay [8], 8 µM (≈ 2.53 µg/mL); in assay [9], 32 µM (≈ 10.1 µg/mL); in [10], 32 µM (≈ 10.1 µg/mL); in [11] it was 32 µM (≈ 10.1 µg/mL); in assay [12] it was 32 µM (≈ 10.1 µg/mL). Besides, the MIC amounted to 64 µM (≈ 20.3 µg/mL) in assay [13] and 16 µM (≈ 5.07 µg/mL) in [14].

`C/C(=N\NC(=O)c1ccncc1)C(=O)Nc1cccc(Cl)c1`: the minimal inhibitory concentration (MIC) is 32 µM (≈ 10.1 µg/mL) in [1]; 32 µM (≈ 10.1 µg/mL) in [2]; 32 µM (≈ 10.1 µg/mL) in [3]; 32 µM (≈ 10.1 µg/mL) in assay [4]; 64 µM (≈ 20.3 µg/mL) in assay [5]; 32 µM (≈ 10.1 µg/mL) in assay [6]. The MIC in assay [7] is 64 µM (≈ 20.3 µg/mL); in [8], 16 µM (≈ 5.07 µg/mL); in [9], 32 µM (≈ 10.1 µg/mL); in [10], 64 µM (≈ 20.3 µg/mL); in assay [11], 32 µM (≈ 10.1 µg/mL); in assay [12] it was 32 µM (≈ 10.1 µg/mL). The results for the minimal inhibitory concentration (MIC) in assay [13] and in assay [14] were 64 µM (≈ 20.3 µg/mL) and 32 µM (≈ 10.1 µg/mL), respectively.

For `C/C(=N\NC(=O)c1ccncc1)C(=O)Nc1ccc(I)cc1`, the MIC in assay [1] was found to be 32 µM (≈ 13.1 µg/mL); in assay [15] it was 0.25 µM (≈ 0.102 µg/mL); in assay [2], 32 µM (≈ 13.1 µg/mL); in assay [3], 16 µM (≈ 6.53 µg/mL); in assay [4], 8 µM (≈ 3.27 µg/mL); in [5], 16 µM (≈ 6.53 µg/mL). For the same molecule, the minimal inhibitory concentration (MIC) in [6] worked out at 32 µM (≈ 13.1 µg/mL); in [7] it was 16 µM (≈ 6.53 µg/mL); in assay [8], 8 µM (≈ 3.27 µg/mL); in assay [9] it was 16 µM (≈ 6.53 µg/mL); in assay [10] it was 16 µM (≈ 6.53 µg/mL); in assay [11], 16 µM (≈ 6.53 µg/mL). For the same molecule, the MIC came to 8 µM (≈ 3.27 µg/mL) in [12], 16 µM (≈ 6.53 µg/mL) in assay [13], 16 µM (≈ 6.53 µg/mL) in assay [14] and 12.5 µM (≈ 5.1 µg/mL) in [16].

`C/C(=N\NC(=O)c1ccncc1)C(=O)Nc1ccc(C(F)(F)F)cc1`: the MIC in assay [1] stood at 64 µM (≈ 22.4 µg/mL); in [2], 64 µM (≈ 22.4 µg/mL); in [3], 32 µM (≈ 11.2 µg/mL); in [4], 64 µM (≈ 22.4 µg/mL); in assay [5], 32 µM (≈ 11.2 µg/mL); in assay [6], 64 µM (≈ 22.4 µg/mL). In addition, the MIC is 64 µM (≈ 22.4 µg/mL) in [7]; 32 µM (≈ 11.2 µg/mL) in [8]; 32 µM (≈ 11.2 µg/mL) in assay [9]; 32 µM (≈ 11.2 µg/mL) in assay [10]; 32 µM (≈ 11.2 µg/mL) in assay [11]; 32 µM (≈ 11.2 µg/mL) in assay [12]. Further, the MIC in assay [13] worked out at 64 µM (≈ 22.4 µg/mL); in assay [14] it was 32 µM (≈ 11.2 µg/mL).

As for `C/C(=N\NC(=O)c1ccncc1)C(=O)Nc1ccc(Cl)c(Cl)c1`, the MIC worked out at 125 µM (≈ 43.9 µg/mL) in [1]; 125 µM (≈ 43.9 µg/mL) in [2]; 64 µM (≈ 22.5 µg/mL) in assay [3]; 32 µM (≈ 11.2 µg/mL) in assay [4]; 32 µM (≈ 11.2 µg/mL) in assay [5]; 125 µM (≈ 43.9 µg/mL) in [6]. The MIC in [7] turned out to be 125 µM (≈ 43.9 µg/mL); in [8], 32 µM (≈ 11.2 µg/mL); in assay [9], 64 µM (≈ 22.5 µg/mL); in assay [10], 64 µM (≈ 22.5 µg/mL); in assay [11] it was 64 µM (≈ 22.5 µg/mL); in assay [12], 32 µM (≈ 11.2 µg/mL). The MIC in [13] was found to be 64 µM (≈ 22.5 µg/mL); in [14], 32 µM (≈ 11.2 µg/mL).

In the case of `C/C(=N\NC(=O)c1ccncc1)C(=O)Nc1ccc(F)cc1`, the MIC was 64 µM (≈ 19.2 µg/mL) in assay [1]; 64 µM (≈ 19.2 µg/mL) in assay [2]; 64 µM (≈ 19.2 µg/mL) in assay [3]; 64 µM (≈ 19.2 µg/mL) in assay [4]; 32 µM (≈ 9.61 µg/mL) in assay [5]; 64 µM (≈ 19.2 µg/mL) in assay [6]. The MIC in assay [7] came to 125 µM (≈ 37.5 µg/mL); in assay [8], 32 µM (≈ 9.61 µg/mL); in assay [9] it was 64 µM (≈ 19.2 µg/mL); in assay [10], 64 µM (≈ 19.2 µg/mL); in assay [11], 32 µM (≈ 9.61 µg/mL); in assay [12], 32 µM (≈ 9.61 µg/mL). The results for the MIC in [13] and in [14] were 64 µM (≈ 19.2 µg/mL) and 32 µM (≈ 9.61 µg/mL), respectively.

Regarding `C/C(=N\NC(=O)c1ccncc1)C(=O)Nc1ccc(OC(F)(F)F)cc1`, the MIC in assay [1] amounted to 64 µM (≈ 23.4 µg/mL); in assay [15], 0.15 µM (≈ 0.0549 µg/mL); in assay [2], 64 µM (≈ 23.4 µg/mL); in assay [3], 64 µM (≈ 23.4 µg/mL); in [4] it was 64 µM (≈ 23.4 µg/mL); in assay [5] it was 64 µM (≈ 23.4 µg/mL). Moreover, the MIC turned out to be 64 µM (≈ 23.4 µg/mL) in assay [6]; 32 µM (≈ 11.7 µg/mL) in assay [7]; 32 µM (≈ 11.7 µg/mL) in assay [8]; 32 µM (≈ 11.7 µg/mL) in assay [9]; 32 µM (≈ 11.7 µg/mL) in assay [10]; 32 µM (≈ 11.7 µg/mL) in [11]. Besides, the minimal inhibitory concentration (MIC) worked out at 32 µM (≈ 11.7 µg/mL) in assay [12], 64 µM (≈ 23.4 µg/mL) in [13], 64 µM (≈ 23.4 µg/mL) in assay [14] and 6 µM (≈ 2.2 µg/mL) in assay [16].
